Data reported in patent publication US12324802B2, “Modulators of cystic fibrosis transmembrane conductance regulator” (Vertex Pharmaceuticals Incorporated, priority 2020, dated 2025).

Target: T1, CFTR (F508del/MF-HBE cells) (Homo sapiens, UniProt P13569, DEL508-508)
T1 construct: human bronchial epithelial (HBE) cells derived from CF subjects heterozygous for F508del and a minimal function CFTR mutation; endogenous in cells; host or cells: primary human bronchial epithelial cells from CF subjects (F508del/MF genotype)
T1 sequence (P13569 with tags, fused parts or gaps DEL508-508): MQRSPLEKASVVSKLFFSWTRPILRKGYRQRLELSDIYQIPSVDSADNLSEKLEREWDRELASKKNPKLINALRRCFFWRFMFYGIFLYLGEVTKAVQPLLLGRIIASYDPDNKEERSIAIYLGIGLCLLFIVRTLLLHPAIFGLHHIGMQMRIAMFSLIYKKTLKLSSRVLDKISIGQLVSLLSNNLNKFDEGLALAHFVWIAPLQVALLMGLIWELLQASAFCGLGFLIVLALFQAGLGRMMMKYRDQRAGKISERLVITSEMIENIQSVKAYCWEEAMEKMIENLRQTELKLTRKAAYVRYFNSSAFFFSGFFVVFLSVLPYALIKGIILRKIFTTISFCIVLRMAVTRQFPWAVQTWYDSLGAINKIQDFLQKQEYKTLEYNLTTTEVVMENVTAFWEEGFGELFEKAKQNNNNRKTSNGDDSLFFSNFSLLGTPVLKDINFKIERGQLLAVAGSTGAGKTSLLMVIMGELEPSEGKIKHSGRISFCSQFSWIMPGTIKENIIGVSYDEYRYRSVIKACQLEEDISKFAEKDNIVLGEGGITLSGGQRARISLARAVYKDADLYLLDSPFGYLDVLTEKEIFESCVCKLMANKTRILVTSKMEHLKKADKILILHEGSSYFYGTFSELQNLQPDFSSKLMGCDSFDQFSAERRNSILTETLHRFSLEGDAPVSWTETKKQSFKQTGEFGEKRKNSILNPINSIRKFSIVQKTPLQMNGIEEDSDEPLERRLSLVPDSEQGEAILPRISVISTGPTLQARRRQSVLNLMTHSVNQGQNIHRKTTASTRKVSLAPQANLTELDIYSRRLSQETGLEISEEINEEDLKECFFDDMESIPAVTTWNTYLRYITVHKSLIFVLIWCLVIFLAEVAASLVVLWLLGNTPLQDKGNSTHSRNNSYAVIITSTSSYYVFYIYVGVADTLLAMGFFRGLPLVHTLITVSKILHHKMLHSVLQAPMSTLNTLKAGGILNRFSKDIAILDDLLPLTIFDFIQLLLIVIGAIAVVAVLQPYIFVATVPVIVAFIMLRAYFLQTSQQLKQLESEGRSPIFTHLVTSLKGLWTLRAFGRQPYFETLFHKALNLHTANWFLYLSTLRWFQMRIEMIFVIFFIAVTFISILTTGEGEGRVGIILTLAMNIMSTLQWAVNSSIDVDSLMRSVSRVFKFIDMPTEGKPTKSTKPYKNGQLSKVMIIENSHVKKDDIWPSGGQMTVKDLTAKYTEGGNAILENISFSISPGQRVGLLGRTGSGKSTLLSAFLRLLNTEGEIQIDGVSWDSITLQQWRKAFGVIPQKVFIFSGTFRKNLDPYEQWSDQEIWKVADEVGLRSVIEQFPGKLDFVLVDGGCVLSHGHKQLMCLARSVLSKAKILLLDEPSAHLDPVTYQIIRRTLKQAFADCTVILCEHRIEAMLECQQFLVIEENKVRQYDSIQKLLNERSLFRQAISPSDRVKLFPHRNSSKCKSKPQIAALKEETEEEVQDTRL
Assay: Ussing chamber assay of CFTR-mediated short-circuit currents (identification of potentiator compounds)
Type: cell-based
Settings: CFTR-mediated ISC in F508del/MF-HBE cells; incubated 18-24 hours at 37° C. with 10 μM (14S)-8-[3-(2-{dispiro[2.0.2.1]heptan-7-yl}ethoxy)-1H-pyrazol-1-yl]-...-2,2,4-trione, 20% human serum
How it was run: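 Short-circuit current was voltage-clamped at 0 mV and 37 °C in pH 7.4 HEPES buffers, with amiloride (30 μM) on the apical side. The CFTR component was defined as forskolin (20 μM) peak minus residual current after BPO/GlyH-101/CFTRinh-172 at 20 μM each. Cells had been pretreated 18–24 h with potentiator concentrations and 10 μM corrector in 20% human serum, kept throughout the measurement.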

Structure (SMILES)	EC50 [nM]
CNc1cc(C(F)(F)F)c2nc1-c1nnc(o1)[C@@](O)(C(F)(F)F)CCCCC[C@@H]1CCCN21 [Compound 13, (6R,12R)-20-(methylamino)-6,18-bis(trifluoromethyl)-22-oxa-3,4,16,21-tetraazatetracyclo[15.3.1.12,5.012,16]docosa-1(21),2,4,17,19-pentaen-6-ol]	< 500
CCNc1cc(C(F)(F)F)c2nc1-c1nnc(o1)[C@@](O)(C(F)(F)F)CCCCC[C@@H]1CCCN21 [Compound 14, (6R,12R)-20-(ethylamino)-6,18-bis(trifluoromethyl)-22-oxa-3,4,16,21-tetraazatetracyclo[15.3.1.12,5.012,16]docosa-1(21),2,4,17,19-pentaen-6-ol]	< 500
CNc1cc(C(F)(F)F)c2nc1-c1nnc(o1)[C@](O)(C(F)(F)F)CCCCC[C@@H]1CCCN21 [Compound 15, (6S,12R)-20-(methylamino)-6,18-bis(trifluoromethyl)-22-oxa-3,4,16,21-tetraazatetracyclo[15.3.1.12,5.012,16]docosa-1(21),2,4,17,19-pentaen-6-ol]	> 1000
CCNc1cc(C(F)(F)F)c2nc1-c1nnc(o1)[C@](O)(C(F)(F)F)CCCCC[C@@H]1CCCN21 [Compound 16, (6S,12R)-20-(ethylamino)-6,18-bis(trifluoromethyl)-22-oxa-3,4,16,21-tetraazatetracyclo[15.3.1.12,5.012,16]docosa-1(21),2,4,17,19-pentaen-6-ol]	> 1000
Nc1cc(C(F)(F)F)c2nc1-c1nnc(o1)C(O)(C(F)(F)F)CCCCC1CCCN21 (centres unmarked) [Compound 17, 19-amino-6,17-bis(trifluoromethyl)-21-oxa-3,4,15,20-tetraazatetracyclo[14.3.1.12,5.011,15]henicosa-1(20),2,4,16,18-pentaen-6-ol]	< 500
Nc1cc(C(F)(F)F)c2nc1-c1nnc(o1)C(O)(C(F)(F)F)CCCCC1CCCN21 (centres unmarked) [Compound 18, 19-amino-6,17-bis(trifluoromethyl)-21-oxa-3,4,15,20-tetraazatetracyclo[14.3.1.12,5.011,15]henicosa-1(20),2,4,16,18-pentaen-6-ol]	< 500
Nc1cc(C(F)(F)F)c2nc1-c1nnc(o1)C(=NO)CCCCC[C@@H]1CCCN21 [Compound 31, (12R)-6-(hydroxyimino)-18-(trifluoromethyl)-22-oxa-3,4,16,21-tetraazatetracyclo[15.3.1.12,5.012,16]docosa-1(21),2,4,17,19-pentaen-20-amine]	< 500
Nc1cc(C(F)(F)F)c2nc1-c1nnc(o1)C(=O)CCCCC[C@@H]1CCCN21 [Compound 36, (12R)-20-amino-18-(trifluoromethyl)-22-oxa-3,4,16,21-tetraazatetracyclo[15.3.1.12,5.012,16]docosa-1(21),2,4,17,19-pentaen-6-one]	< 500
CN1CCCCCCC(=O)C2=NN=C(O2)c2nc1c(C(F)(F)F)cc2N [Compound 58, 17-amino-13-methyl-15-(trifluoromethyl)-19-oxa-3,4,13,18-tetrazatricyclo[12.3.1.12,5]nonadeca-1(18),2,4,14,16-pentaen-6-one]	< 500
Nc1cc(C(F)(F)F)c2nc1-c1nnc(o1)[C@](O)(C(F)(F)F)c1cc(ccc1F)CCC[C@@H]1CCCN21 [Compound 59, (6S,15R)-23-amino-8-fluoro-6,21-bis(trifluoromethyl)-26-oxa-3,4,19,24-tetraazapentacyclo[18.3.1.12,5.17,11.015,19]hexacosa-1(24),2,4,7(25),8,10,20,22-octaen-6-ol]	< 500
Nc1cc(C(F)(F)F)c2nc1-c1nnc(o1)[C@@](O)(C(F)(F)F)c1cc(ccc1F)CCC[C@@H]1CCCN21 [Compound 60, (6R,15R)-23-amino-8-fluoro-6,21-bis(trifluoromethyl)-26-oxa-3,4,19,24-tetraazapentacyclo[18.3.1.12,5.17,11.015,19]hexacosa-1(24),2,4,7(25),8,10,20,22-octaen-6-ol]	< 500
Nc1cc(C(F)(F)F)c2nc1-c1nnc(o1)-c1c(O)cccc1CCCC[C@@H]1CCCN21 [Compound 134, (16R)-24-amino-22-(trifluoromethyl)-26-oxa-3,4,20,25-tetraazapentacyclo[19.3.1.12,5.06,11.016,20]hexacosa-1(25),2,4,6(11),7,9,21,23-octaen-7-ol]	> 1000
CC1(C)CC2CCCc3ccc(F)c(c3)C(O)(C(F)(F)F)C3=NN=C(O3)c3nc(c(C(F)(F)F)cc3N)N2C1 (centres unmarked) [Compound 135, 23-amino-8-fluoro-17,17-dimethyl-6,21-bis(trifluoromethyl)-26-oxa-3,4,19,24-tetraazapentacyclo[18.3.1.12,5.17,11.015,19]hexacosa-1(24),2,4,7(25),8,10,20,22-octaen-6-ol]	< 500
CC1(C)CC2CCCc3ccc(F)c(c3)C(O)(C(F)(F)F)C3=NN=C(O3)c3nc(c(C(F)(F)F)cc3N)N2C1 (centres unmarked) [Compound 136, 23-amino-8-fluoro-17,17-dimethyl-6,21-bis(trifluoromethyl)-26-oxa-3,4,19,24-tetraazapentacyclo[18.3.1.12,5.17,11.015,19]hexacosa-1(24),2,4,7(25),8,10,20,22-octaen-6-ol]	< 500
Nc1cc(Br)c2nc1-c1nnc(o1)C(O)(C(F)(F)F)CCCCC[C@@H]1CCCN21 (stereo partly drawn) [Compound 144, (12R)-20-amino-18-bromo-6-(trifluoromethyl)-22-oxa-3,4,16,21-tetraazatetracyclo[15.3.1.12,5.012,16]docosa-1(21),2,4,17,19-pentaen-6-ol]	< 500
Nc1cc(Sc2ccc(OC(F)(F)F)cc2)c2nc1-c1nnc(o1)C(O)(C(F)(F)F)CCCCC[C@@H]1CCCN21 (stereo partly drawn) [Compound 146, (12R)-20-amino-18-{[4-(trifluoromethoxy)phenyl]sulfanyl}-6-(trifluoromethyl)-22-oxa-3,4,16,21-tetraazatetracyclo[15.3.1.12,5.012,16]docosa-1(21),2,4,17,19-pentaen-6-ol]	< 500
Nc1cc(C(F)(F)F)c2nc1-c1nnc(o1)C(O)(C(F)(F)F)CCCOC[C@@H]1CCCN21 (stereo partly drawn) [Compound 147, (12S)-20-amino-6,18-bis(trifluoromethyl)-10,22-dioxa-3,4,16,21-tetraazatetracyclo[15.3.1.12,5.012,16]docosa-1(21),2,4,17,19-pentaen-6-ol]	< 500
Nc1cc(C(F)(F)F)c2nc1-c1nnc(o1)[C@@](O)(C(F)(F)F)CCCCCC(C(=O)N1CCCC1)N2 (stereo partly drawn) [Compound 154, [(6R)-17-amino-6-hydroxy-6,15-bis(trifluoromethyl)-19-oxa-3,4,13,18-tetrazatricyclo[12.3.1.12,5]nonadeca-1(18),2,4,14,16-pentaen-12-yl]-pyrrolidin-1-yl-methanone]	> 1000
CC1(C)CCCCC[C@](O)(C(F)(F)F)C2=NN=C(O2)c2nc(c(C(F)(F)F)cc2N)N1 [Compound 163, (6R)-17-amino-12,12-dimethyl-6,15-bis(trifluoromethyl)-19-oxa-3,4,13,18-tetrazatricyclo[12.3.1.12,5]nonadeca-1(18),2,4,14,16-pentaen-6-ol]	< 500
CC1(C)CCCCC[C@@](O)(C(F)(F)F)C2=NN=C(O2)c2nc(c(C(F)(F)F)cc2N)N1 [Compound 165, (6S)-17-Amino-12,12-dimethyl-6,15-bis(trifluoromethyl)-19-oxa-3,4,13,18-tetrazatricyclo[12.3.1.12,5]nonadeca-1(18),2,4,14,16-pentaen-6-ol]	> 1000
Nc1cc(C(F)(F)F)c2nc1-c1nnc(o1)[C@@](O)(C(F)(F)F)CCCCCC(c1ccccn1)N2 (stereo partly drawn) [Compound 166, (6R)-17-amino-12-(2-pyridyl)-6,15-bis(trifluoromethyl)-19-oxa-3,4,13,18-tetrazatricyclo[12.3.1.12,5]nonadeca-1(18),2,4,14,16-pentaen-6-ol]	< 500
Nc1cc(C(F)(F)F)c2nc1-c1nnc(o1)[C@@](O)(C(F)(F)F)CCCCCC1(CCC1)N2 [Compound 173, (6R)-17-amino-6,15-bis(trifluoromethyl)spiro[19-oxa-3,4,13,18-tetrazatricyclo[12.3.1.12,5]nonadeca-1(18),2,4,14,16-pentaene-12,1′-cyclobutane]-6-ol]	< 500
[2H]C([2H])([2H])C1(C([2H])([2H])[2H])CCCCC[C@](O)(C(F)(F)F)C2=NN=C(O2)c2nc(c(C(F)(F)F)cc2N)N1 [Compound 176, (6R)-17-amino-12,12-bis(trideuteriomethyl)-6,15-bis(trifluoromethyl)-19-oxa-3,4,13,18-tetrazatricyclo[12.3.1.12,5]nonadeca-1(18),2,4,14,16-pentaen-6-ol]	< 500
Nc1cc(C(F)(F)F)c2nc1-c1nnc(o1)[C@@](O)(C(F)(F)F)CCCCCC1(CCCC1)N2 [Compound 177, (6R)-17-amino-6,15-bis(trifluoromethyl)spiro[19-oxa-3,4,13,18-tetrazatricyclo[12.3.1.12,5]nonadeca-1(18),2,4,14,16-pentaene-12,1′-cyclopentane]-6-ol]	< 500
CC1(C)CNc2nc(c(N)cc2C(F)(F)F)C2=NN=C(O2)[C@@](O)(C(F)(F)F)CCCO1 [Compound 186, (6R)-17-amino-11,11-dimethyl-6,15-bis(trifluoromethyl)-10,19-dioxa-3,4,13,18-tetrazatricyclo[12.3.1.12,5]nonadeca-1(17),2,4,14(18),15-pentaen-6-ol]	< 500
CC1(C)CCC[C@@H](O)C[C@](O)(C(F)(F)F)C2=NN=C(O2)c2nc(c(C(F)(F)F)cc2N)N1 [Compound 187, (6R,8R)-17-amino-12,12-dimethyl-6,15-bis(trifluoromethyl)-19-oxa-3,4,13,18-tetrazatricyclo[12.3.1.12,5]nonadeca-1(18),2,4,14,16-pentaene-6,8-diol]	< 500
